Source: patent US5484940A, “Substituted 3-indolyl-5-pyrazolone compounds” (priority 1994, dated 1996)

How the values were obtained:
5-lipoxygenase = target: T1, 5-lipoxygenase (Rattus norvegicus, UniProt P12527); experiment: 5-Lipoxygenase inhibition (5-HETE radioimmunoassay); type: biochemical; details: 7.5 μM compound; crude enzyme from RBL-1 cells; read-out: Percent Inhibition (5-lipoxygenase)
T1 construct: crude 5-lipoxygenase enzyme from rat basophilic leukemia cells (RBL-1); endogenous in cells; host or cells: RBL-1 (rat basophilic leukemia cells), crude enzyme
T1 sequence (P12527 1-673): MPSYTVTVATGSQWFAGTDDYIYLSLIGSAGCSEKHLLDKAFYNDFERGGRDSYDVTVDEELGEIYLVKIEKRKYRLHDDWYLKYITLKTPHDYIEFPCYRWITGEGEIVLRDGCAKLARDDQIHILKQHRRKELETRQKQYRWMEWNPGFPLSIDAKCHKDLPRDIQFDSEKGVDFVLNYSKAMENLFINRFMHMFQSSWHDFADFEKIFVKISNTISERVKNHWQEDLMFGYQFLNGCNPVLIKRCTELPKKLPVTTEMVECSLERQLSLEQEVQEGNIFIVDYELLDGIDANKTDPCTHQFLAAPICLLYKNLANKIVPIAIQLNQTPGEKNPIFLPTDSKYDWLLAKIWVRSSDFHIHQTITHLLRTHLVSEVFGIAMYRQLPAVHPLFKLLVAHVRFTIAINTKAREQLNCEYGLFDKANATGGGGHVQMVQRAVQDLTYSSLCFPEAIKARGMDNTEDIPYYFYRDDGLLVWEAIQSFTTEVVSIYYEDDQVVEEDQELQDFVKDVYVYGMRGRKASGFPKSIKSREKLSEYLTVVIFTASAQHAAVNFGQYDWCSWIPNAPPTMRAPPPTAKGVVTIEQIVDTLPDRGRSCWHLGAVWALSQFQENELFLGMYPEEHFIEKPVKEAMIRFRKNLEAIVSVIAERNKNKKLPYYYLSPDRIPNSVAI
Procedure: 5-Lipoxygenase catalyzes the oxidative metabolism of arachidonic acid to 5-hydroperoxyeicosatetraenoid acid ([…]), the initial reaction leading to the formation of the leukotrienes^18. Accordingly, compounds inhibiting 5-lipoxygenase activity are art recognized to have anti-inflammatory properties.
The ability of test compounds to inhibit 5-lipoxygenase activity was determined in assays^19 using crude 5-lipoxygenase enzyme from rat basophilic leukemia cells (RBL-1). Test compounds are pre-incubated with the enzyme for 5 minutes at room temperature and the reaction is initiated by addition of substrate (arachidonic acid). Following an 8 minute incubation at room temperature, the reaction is terminated by addition of citric acid, and levels of 5-HETE determined by 5-HETE radioimmunoassay.

[1] = system: β-amyloid peptide production; experiment: Cellular screen for inhibitors of β-amyloid production (ELISA, 293 751 SWE cells); type: cell-based, human; details: 2 h pretreatment + 2 h, normalized for cytotoxicity (MTT), concentration not given
How it was run: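 293 751 SWE cells (K293 stably expressing APP751 Swedish mutant) pretreated 2 h with compound, then fresh compound-containing medium for 2 h more at 37 °C. Secreted β-amyloid in conditioned medium quantified by sandwich ELISA (capture 266 anti-Aβ13-28, labelled 6C6 anti-Aβ1-16) against a standard curve as ng/mL; mean ± SD of ≥6 replicates.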

293 751 SWE cells = experiment: Cytotoxicity (MTT) in 293 751 SWE cells; type: cell-based, human; details: concentration not given
How it was run: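 Used HEK293 cells stably expressing APP751 carrying the Swedish double mutation (K651N/M652L), plated at 1.5-2.5×10^4 cells/well in DMEM + 10% FBS. MTT was added to a final 1 mg/mL for 1 h at 37 °C, then lysed in SDS/DMF (pH 4.7) overnight. Viability was read as OD562 − OD650.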

human cortical neurons = experiment: Inhibition of toxicity of β-amyloid peptide to human neuronal cells (alamarBlue); type: cell-based; details: 50 μM β-amyloid peptide, 2-3 days; on average where more than one duplicate experiment; compound concentration not stated
Procedure: (§1) The purpose of this test is to determine the effect of 3-indolyl-5-pyrazolone compounds on the toxicity of β-amyloid peptide to neuronal cells.
Primary Human Cortical Cell Culture
Primary human cortical cultures were prepared using a modification of the procedure described by Seubert, et al.^21 Following filtration through Nitex nylon screens, cortical tissue was resuspended in a trypsin/EDTA solution (0.05% trypsin+0.53 mM EDTA in HBSS; GIBCO Laboratories, Grand Island, N.Y., USA) and kept at 37° C. for 20 minutes. The trypsin was then inactivated by resuspending the cells in serum-containing medium (MEM/FBS: Modified Eagles' Medium (MEM) containing 1% glucose, 1 mM sodium pyruvate, 1 mM glutamine, and supplemented with 10% fetal bovine serum (GIBCO). Cells were then pelleted by centrifugation and resuspended in a chemically-defined medium (MEM/B27: MEM containing B27 supplement in place of FBS; GIBCO). Polyethyleneimine (PEI; Sigma Chemical Company, St. Louis, Mo., USA)-coated 6.4 mm (96-well) dishes were rinsed once with MEM/FBS, and then seeded at 0.75 to 1.25×10^5 cells per well in 0.1 mL MEM/B27. Cultures were maintained in a H2 O-saturated incubator with an atmosphere of 95% air/5% CO 2 at 37° C. The culture medium was exchanged twice weekly. Cell viability was visually assessed by phase contrast microscopy and quantified by measuring the reduction of alamarBlue™ (Alamar Biosciences, Inc., Sacramento, Calif., USA).
(§2) β-amyloid peptide stock solutions were prepared as 1 mM stocks in sterile, doubly distilled water immediately prior to addition to cultures. Rat cortical neurons were exposed to β-amyloid peptide by removing the culture medium and replacing it with DMEM/N2 (GIBCO Laboratories,Grand Island, N.Y., USA) containing 10 to 20 μM β-amyloid peptide. Human cortical neurons were exposed to test compound plus β-amyloid peptide by removing the culture medium and replacing it with MEM containing 50 μM β-amyloid peptide. Cultures were maintained for 2-3 days before neuronal survival was quantified using alamarBlue™.
(§3) The alamarBlue™ assay incorporates a fluorometric/colorimetric metabolic indicator (Alamar Biosciences, Inc. Sacramento, Calif., USA). Viable cells convert alamarBlue™ from an oxidized (non-fluorescent, blue) form to a reduced (fluorescent, red) form. Assays were preformed by replacing the culture media with a 10% alamarBlue™ solution in DMEM (rat cortical cultures) or MEM (human cortical cultures).

rat cortical neurons = experiment: Inhibition of toxicity of β-amyloid peptide to rat neuronal cells (alamarBlue); type: cell-based; details: 10 to 20 μM β-amyloid peptide, 2-3 days; on average where more than one duplicate experiment; compound concentration not stated
Procedure: as §1
Primary rat cortical cultures were established from 18 day rat fetuses. Cortical tissue was dissociated by incubation in a trypsin/EDTA solution (0.05% trypsin+0.53 mM EDTA in HBSS; GIBCO Laboratories, Grand Island, N.Y., USA) for 20 minutes at 37° C. The trypsin was then inactivated by resuspending the cells in serum-containing medium (DMEM/FBS): Dulbecco's Modified Eagles' Medium (DMEM) containing 4.5 g/L glucose, 1 mM sodium pyruvate, 1 mM glutamine, 100 Units/mL penicillin, 100 μg/mL streptomycin, and supplemented with 10% heat-inactivated fetal bovine serum (GIBCO Laboratories, Grand Island, N.Y., USA). Cells were then pelleted by centrifugation and resuspended in a chemically-defined medium (DMEM/B27: DMEM containing B27 supplement; GIBCO Laboratories, Grand Island, N.Y., USA) in place of FBS. Polyethyleneimine (PEI; Sigma Chemical Company, St. Louis, Mo., USA)-coated 6.4 mm (96-well) dishes were timed once with DMEM/FBS, and then seeded at 0.75 to 1.25×10^5 cells per well in 0.1 mL DMEM/B27. Cultures were maintained in a H2 O-saturated incubator with an atmosphere of 90% air/10% CO2 at 37° C. Cell viability was visually assessed by phase contrast microscopy and quantified by measuring the reduction of alamarBlue™ (Alamar biosciences, Inc., Sacramento, Calif., USA) as described below. Serum replacement with B27 supplement yields nearly pure neuronal cultures as judged by immunocytochemistry for glial fibrillary acidic protein and neuron-specific enolase (Brewer, et al.^20)
as §2, §3

Ultraviolet absorption = type: physicochemical; details: 0.1 mg/mL in methanol, 1 cm quartz cuvette
Procedure: The ultraviolet (UV) absorption properties of two representative substituted 3-indolyl-5-pyrazolones were evaluated and compared to indomethacin [1-(4-chlorobenzoyl)-5-methoxy-2-methyl-^1 H-indole-3-acetic acid], a compound known to absorb UV light (See page 4855 of the Merck Index, 10th Edition, Windholz, et al. Editor (1983)). Specifically, 0.1 mg/mL of 3-indolyl-5-pyrazolone (Ex. 9 or 33) or indomethacin in methanol was added to a quartz cuvette (1 cm) and the UV absorption of this solution was then measured at a wavelength of from 200 nm to 800 nm (Examples 9 and 33) and from 190 nm to 800 nm.

Compound | inhibition at 7.5 µM (5-lipoxygenase) | reduction of β-amyloid peptide production as compared to control [1] | cytotoxic effect on the 293 751 SWE cells (293 751 SWE cells) | inhibition of the toxicity of β-amyloid peptide to human neuronal cells (human cortical neurons) | inhibition of the toxicity of β-amyloid peptide to rat neuronal cells (rat cortical neurons) | Abs (at λmax) (Ultraviolet absorption) | E = Extinction coefficient (Ultraviolet absorption) | λmax (Ultraviolet absorption) | λother (shoulder) (Ultraviolet absorption)
COc1ccc2c(c1)c(CC1=NN(C(C)(C)C)C(=O)C1)c(C)n2C(=O)c1ccc(Cl)cc1 [Example 14, 3-[1-(4-chlorobenzoyl)-5-methoxy-2-methyl-3-indolylmethyl]-1-t-butyl-5-pyrazolone] | 48% | at least 20% | did not have a significant cytotoxic effect |  |  |  |  |  | 
COc1ccc2c(c1)c(CC1=NN(c3cccc(Cl)c3)C(=O)C1)c(C)n2C(=O)c1ccc(Cl)cc1 [Example 26, 3-[1-(4-chlorobenzoyl)-5-methoxy-2-methyl-3-indolylmethyl]-1-(3-chlorophenyl)-5-pyrazolone] |  | at least 20% | did not have a significant cytotoxic effect | at least 25% | at least 10% |  |  |  | 
COc1ccc2c(c1)c(CC1=NN(c3cc(Cl)cc(Cl)c3)C(=O)C1)c(C)n2C(=O)c1ccc(Cl)cc1 [Example 27, 3-[1-(4-chlorobenzoyl)-5-methoxy-2-methyl-3-indolylmethyl]-1-(3,5-dichlorophenyl)-5-pyrazolone] |  | at least 20% | did not have a significant cytotoxic effect | at least 25% | at least 10% |  |  |  | 
COc1ccc2c(c1)c(CC1=NN(c3cccc([N+](=O)[O-])c3)C(=O)C1)c(C)n2C(=O)c1ccc(Cl)cc1 [Example 30, 3-[1-(4-chlorobenzoyl)-5-methoxy-2-methyl-3-indolylmethyl]-1-(3-nitrophenyl)-5-pyrazolone] |  | at least 20% | did not have a significant cytotoxic effect | at least 25% | < 10% |  |  |  | 
COc1ccc2c(c1)c(CC1=NN(c3ccc(Cl)c(Cl)c3)C(=O)C1)c(C)n2C(=O)c1ccc(Cl)cc1 [Example 33, 3-[1-(4-chlorobenzoyl)-5-methoxy-2-methyl-3-indolylmethyl]-1-(3,4-dichlorophenyl)-5-pyrazolone] |  | at least 20% | did not have a significant cytotoxic effect | at least 25% | at least 10% | 2.3458 | 23.46 AU/mg/mL/cm | 254 nm | 318 nm
COc1ccc2c(c1)c(CC1=NN(c3ccc(C)cc3)C(=O)C1)c(C)n2C(=O)c1ccc(Cl)cc1 [Example 34, 3-[1-(4-chlorobenzoyl)-5-methoxy-2-methyl-3-indolylmethyl]-1-(4-methylphenyl)-5-pyrazolone] |  | at least 20% | did not have a significant cytotoxic effect | at least 25% | at least 10% |  |  |  | 
COc1ccc2c(c1)c(CC(=O)O)c(C)n2C(=O)c1ccc(Cl)cc1 [indomethacin, 1-(4-chlorobenzoyl)-5-methoxy-2-methyl-^1 H-indole-3-acetic acid, reference compound] |  |  |  |  |  | 2.3996 | 23.99 AU/mg/mL/cm | 246 nm | 318 nm
